# Results as given in US20110236395A1, “TREATMENT OF FIBROTIC EYE DISORDERS USING AN MMP2 INHIBITOR” (UNIVERSITY OF EAST ANGLIA, priority 2008, published 2011).
# Columns and labels:
# [1] = test system: excised rat lenses; settings: concentrations typically micromolar; cited from earlier work
# [2] = test system: posterior capsule / capsular bag; settings: in the absence of TGF-β; cited from earlier work
# [3] = test system: FHL 124 cells; test: Patch contraction assay (TGF-β-induced matrix contraction); format: cell-based, human
# Method: FIG. 2. […] FHL 124 cells were seeded to form patches, maintained in serum-free medium before exposure to experimental conditions. All cultures were maintained for 72 hours in 5% EMEM (Eagle's minimal essential medium) alone or 5% FCS (fetal calf serum) EMEM supplemented with 10 ng/mL TGF-β1 or -β2±the MMP inhibitor GM6001 (25 μM). (A) Visual representations of patch assay cultures in different experimental conditions. (B) Quantified data showing differences in patch area. (C) Data showing differences in cell populations between patch areas (Coomassie blue dye was extracted and quantified from the same experiment as presented in (B)). In FIGS. 2(B) and (C) each left hand bar of the bar pairs reports the result in the absence of GM6001 (indicated as “−GM6001” in the key) and the right hand bar reports the result in the presence of GM6001 (indicated as “+GM6001” in the key). Data represent mean±SEM. * Indicates a significant difference from unstimulated control cells. # Indicates a significant difference between siMMP2 treated cells and SCR siRNA counterparts (p≦0.05, ANOVA with the Tukey test).
# FIG. 6. MMP2 is important for TGF-β-induced matrix contraction. FHL 124 cells were seeded to form patches, then transfected with siRNA targeted to MMP2 or SCR negative control and maintained in Optimem™ (Invitrogen Corporation; Optimem is a modified EMEM, buffered with HEPES and sodium bicarbonate and supplemented with hypoxanthine, thymidine, sodium pyruvate, L-glutamine or Glutamax, trace elements and growth factor; the protein level is minimal (15 μg/mL) with insulin and transferrin being the only protein supplements; phenol red is included as a pH indicator). Patches were measured after 72 hours of culture with 10 ng/mL TGF-β1 or […]. (A) Visual representations of patch assay cultures in different experimental conditions. (B) Quantified data showing differences in patch area. (C) Data showing differences in cell populations between patch areas (Coomassie blue dye was extracted and quantified from the same experiment as presented in (B)). In FIGS. 6(B) and (C) each left hand bar of the bar pairs reports the result with Scramble siRNA (indicated as “Scramble SiRNA” in the key) and the right hand bar reports the result in the presence of MMP2 specific siRNA (indicated as “MMP2 SiRNA” in the key). The data in (B) and (C) represent the mean±SEM (n≦4). *Indicates a significant difference from unstimulated control cells. # Indicates a significant difference between siMMP2 treated cells and SCR siRNA counterparts (p≦0.05, ANOVA with the Tukey test).
# FIG. 7. MMP2 inhibition using neutralising antibody ([…]) prevents TGF-β2 (10 ng/ml)-induced matrix contraction assessed by patch assay. In FIG. 7(B) each left hand bar of the bar pairs reports the result in the absence of the antibody (indicated as “−4 μg/ml Anti MMP2” in the key) and the right hand bar reports the result in the presence of the antibody (indicated as “+4 μg/ml Anti MMP2” in the key). Data expressed as Mean±SEM (n=3).
# FHL 124 cells were seeded at four sites on a tissue culture dish at 5000 cells in 25 μl and maintained in EMEM supplemented with 5% FCS until confluent regions spanning about 5 mm developed (Wormstone et al, Exp. Eye Res. (2004), 78, pages 705-14). The medium was then replaced with non-supplemented EMEM, and the cells were cultured for a further 24 hours, followed by the removal of medium from four patch culture dishes fixed for 30 minutes with 4% formaldehyde at room temperature, followed by washing in PBS. The patches were used as a t=0 reference control.
# All remaining cell cultures were exposed to experimental conditions for up to 3 days. Experiments were terminated after the appearance of cell-free regions (holes) within the central region of the patch, by fixation for 30 minutes with 4% formaldehyde at room temperature. […]
# [4] = test system: MMP2 gene expression in FHL 124 cells; test: Quantitative real-time PCR of MMP2 gene expression after siRNA transfection; format: cell-based, human; settings: 100 nM siRNA
# Method: FIG. 4. Validation of siRNA directed against specific inhibition of MMP2 for 24 hours using targeted siRNA techniques leads to a greater than 90% reduction in MMP2 gene expression. Furthermore, after 48 hours from initial MMP2 SiRNA transfection, MMP2 gene expression levels are still reduced by more than 80% in comparison with Scramble SiRNA controls. Each left hand bar of the bar pairs reports the result with Scramble siRNA (indicated as “Scramble SiRNA” in the key) and the right hand bar reports the result in the presence of MMP2 specific siRNA (indicated as “MMP2 SiRNA” in the key).
# Total RNA was extracted from tissue and primary cultured cells (RNeasy micro kits; Qiagen, West Sussex, UK) in accordance with the manufacturer's instructions. In the initial step, RLT buffer (containing-mercaptoethanol) was added directly to phosphate buffered saline (PBS)-washed culture monolayers. Cultured cell lysates were removed with a cell scraper. Each sample was then transferred to an individual Eppendorf tube and passed through a needle and syringe. The remainder of the protocol was as described by the manufacturer and included a DNAse step. Quality control was maintained with an RNA analyzer (Bioanalyzer 2100; Agilent, West Lothian, UK) and an RNA lab chip (6000 Nano lab chip; Agilent) to ensure that 28S and 18S rRNA bands were clearly evident in total RNA samples. RNA was quantified with a spectrophotometer (ND-1000; NanoDrop, Wilmington, Del., USA). For the samples analyzed, the 260:280 ratio ranged from 1.8 to 2.2 (mean, 2.0). Where possible, total RNA was immediately used for cDNA generation or was briefly stored at −80° C. […]
# Quantitative real-time PCR was used to analyze mRNA expression for all genes in FHL 124 cells (for a comprehensive description of MMPs and TIMPs primer/probe sets used, see Nuttall R. K. et al. (Mol Cancer Res (2003) 1, pages 333-345. Assuming 100% efficiency in the reverse transcription reaction, either 1 ng or 5 ng cDNA was used in real-time PCR reactions performed using a real-time PCR machine (ABI7700; Applied Biosystems). Reagent-based assays (Taq-Man Universal PCR Master Mix, No AmpErase UNG; Applied Biosystems) with all PCR reagents were used according to the manufacturer's instructions. The amount of amplification associated with priming from genomic DNA contamination was evaluated with control reverse transcription reactions containing all reagents without reverse transcriptase. […] The cycle number at which amplification entered the exponential phase (cycle threshold [CT]) was determined, and this number was used as an indicator for the amount of target RNA in each sample analyzed. […]
# [5] = test system: MMP2; test: Gelatin zymography of MMP2 protein expression after siRNA transfection; format: cell-based, human; settings: over a 72 hour period, zymography of culture media
# Method: FIG. 5. SiMMP2 suppresses MMP2 protein expression. […] However, throughout this period the MMP2 level in the siMMP2 treated cells is about 50% of the siRNA control cells (SCR). In FIG. 5A each left hand bar of the bar pairs reports the result with Scramble siRNA (indicated as “Scramble SiRNA” in the key) and the right hand bar reports the result in the presence of MMP2 specific siRNA (indicated as “MMP2 SiRNA” in the key).
# Gelatinolytic activity of culture media was analyzed by electrophoresis under non-reducing conditions on a 7% SDS-polyacrylamide gel containing 0.5 mg/mL denatured collagen type I (gelatin; Sigma) as previously described by Gavrilovic J. et al. (Cell Regul. (1990) 1, pages 1003-14). After electrophoresis, gels were washed twice in 2.5% Triton-X 100 for 15 minutes and then incubated for 4 hours at 37° C. in 100 mM Tris-HCl (pH 7.9), 30 mM CaCl2, and 0.02% sodium azide. The gels were stained with Coomassie brilliant blue (Sigma), and the images were captured with a gel scanner.
# Custom made MMP2 siRNA: sense 5′-[…]-3′ (SEQ. ID. NO: 1), antisense 5′-[…]-3′ (SEQ. ID. NO: 2) and siRNA negative control (universal scrambled siRNA) were used. Both siRNAs were purchased from Ambion Ltd. (Huntingdon, UK). FHL 124 cells were seeded onto 35-mm culture dishes at either 25,000 cells in 1.5 ml for protein extraction or as four patches of 5000 cells, for patch assay analysis. […]
# [6] = test system: HLE-B3; settings: HLE-B3 cell line; cited from earlier work
# [7] = 25 μM GM6001 in presence of 10 ng/ml TGF-β1 or TGF-β2, 72 hours
# [8] = siMMP2 transfected, 10 ng/ml TGF-β1 or TGF-β2, 72 hours
compound,measurement,setting,value
"CNC(=O)[C@H](Cc1c[nH]c2ccccc12)NC(=O)[C@@H](CC(=O)NO)CC(C)C [GM6001, N-[(2R)-2-(hydroxamidocarbonylmethyl)-4-methylpentanoyl]-L-trypto-phan methylamide]",occurrence of TGF-β-induced anterior subcapsular cataracts (ASCs),[1],prevents the occurrence
same,capsular bag contraction,[2],suppress consequent capsular bag contraction
same,cell migration onto the posterior capsule surface,[2],suppress cell migration onto the posterior capsule surface
same,effect on patch area relative to control,"[3]; 25 μM GM6001 alone (no TGF-β), 72 hours, vs control 5% FCS EMEM group",no significant effect on patch area
same,formation of cell free zones,[3]; [7],suppressed the formation of cell free zones
same,patch area vs un-stimulated control group,[3]; [7],did not significantly differ from the un-stimulated control group
same,TGF-β-induced matrix contraction,"[3]; GM6001 25 μM, 10 ng/mL TGF-β1 or -β2, 72 hours (FIG. 2 legend)",prevents TGF-β-induced matrix contraction
same,total protein content by Coomassie blue dye extraction (cell population),"[3]; patches ± 10 ng/ml TGF-β1 or -β2 ± GM6001, 72 hours",no significant changes
"siMMP2: Custom made MMP2 siRNA: sense 5′-GGACACACUAAAGAAGAUGTT-3′, antisense 5′-CAUCUUCUUUAGUGUGUCCTT-3′, purchased from Ambion (chemistry not given here)",reduction in MMP2 gene expression,"[4]; 24 hours in transfection conditions, vs negative control siRNA",greater than 90%
same,reduction in MMP2 gene expression,"[4]; 24 hours in transfection conditions, vs negative control siRNA, listed as siRNA against MMP2",90%
same,reduction in MMP2 gene expression,"[4]; 48 hours from transfection, vs Scramble siRNA controls",more than 80%
same,reduction in MMP2 gene expression,"[4]; 48 hours from transfection, vs Scramble siRNA controls, listed as siRNA against MMP2",> 70%
same,MMP2 protein level relative to Scrambled siRNA control,[5],about 50%
same,MMP2 protein level relative to Scrambled siRNA control,[5]; listed as siRNA against MMP2,approximately 50%
same,TGF-β-induced contraction,[3]; [8],did not show any evidence of contraction
same,patch area vs non-TGF-β-treated controls,[3]; [8],did not differ significantly from non-TGF-β-treated controls
same,patch area vs SCR control,"[3]; siRNA transfected, non-stimulated conditions (no TGF-β)",did not show a statistical difference in patch area from the SCR control
O=C(NO)[C@@H](Cc1ccccc1)NS(=O)(=O)c1ccc(-c2ccccc2)cc1 [(2R)-[(4-biphenylylsulfonyl)amino]-N-hydroxyl-3-phenylpropionamide],occurrence of TGF-β-induced anterior subcapsular cataracts (ASCs),[1],prevents the occurrence
O=C(O)[C@@H](Cc1ccccc1)NS(=O)(=O)c1ccc(-c2ccccc2)cc1 [(2R)-2-[(4-biphenylylsulphonyl)amino]-3-phenylpropionic acid],TGF-β1-induced morphological change in the cells,[6],blocked
